Results: ChEMBL document CHEMBL3862033 (J Med Chem, 2016)

Experiments:
[1] = target: T1, 5-hydroxytryptamine receptor 1A (Homo sapiens) (UniProt P08908); assay: Displacement of [3H]WAY100635 from human 5-HT1AR expressed in CHO cell membranes at 10 uM incubated for 90 mins under dark condition by microbeta scintillation counting method relative to control
T1 sequence (whole entry): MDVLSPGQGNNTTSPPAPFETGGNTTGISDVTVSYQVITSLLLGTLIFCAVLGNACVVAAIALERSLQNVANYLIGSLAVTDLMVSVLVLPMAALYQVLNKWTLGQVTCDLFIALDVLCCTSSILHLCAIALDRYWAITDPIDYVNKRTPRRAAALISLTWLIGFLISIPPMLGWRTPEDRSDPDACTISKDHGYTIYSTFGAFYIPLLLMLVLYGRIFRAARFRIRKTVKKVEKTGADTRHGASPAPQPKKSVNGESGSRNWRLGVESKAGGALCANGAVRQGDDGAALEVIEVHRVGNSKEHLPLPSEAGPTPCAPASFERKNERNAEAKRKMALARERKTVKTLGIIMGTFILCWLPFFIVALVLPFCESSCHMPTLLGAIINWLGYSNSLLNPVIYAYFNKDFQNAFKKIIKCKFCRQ

[2] = target: 5-hydroxytryptamine receptor 4 (Homo sapiens) (UniProt Q13639); assay: Displacement of [3H]GR113808 from human 5-HT4 receptor at 10 uM incubated for 90 mins under dark condition by microbeta scintillation counting method relative to control
5-hydroxytryptamine receptor 4 (Homo sapiens), sequence (Q13639 whole entry): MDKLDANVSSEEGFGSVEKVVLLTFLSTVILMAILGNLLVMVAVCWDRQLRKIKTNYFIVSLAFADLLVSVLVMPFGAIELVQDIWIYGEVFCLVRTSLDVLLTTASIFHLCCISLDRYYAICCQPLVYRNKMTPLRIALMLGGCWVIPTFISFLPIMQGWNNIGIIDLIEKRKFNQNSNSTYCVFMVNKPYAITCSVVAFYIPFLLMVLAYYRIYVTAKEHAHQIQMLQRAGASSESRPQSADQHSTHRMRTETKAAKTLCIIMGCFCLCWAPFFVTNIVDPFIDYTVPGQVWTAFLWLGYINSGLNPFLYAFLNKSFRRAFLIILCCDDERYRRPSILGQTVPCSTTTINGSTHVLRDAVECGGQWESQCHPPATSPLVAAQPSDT

[3] = target: 5-hydroxytryptamine receptor 5A (Homo sapiens) (UniProt P47898); assay: Displacement of [3H]LSD from human 5-HT5A receptor expressed in Flp-In-CHO cell membranes incubated for 90 mins under dark condition by microbeta scintillation counting method relative to control; set-up: concentration or dose not given beside the values
5-hydroxytryptamine receptor 5A (Homo sapiens), sequence (P47898 whole entry): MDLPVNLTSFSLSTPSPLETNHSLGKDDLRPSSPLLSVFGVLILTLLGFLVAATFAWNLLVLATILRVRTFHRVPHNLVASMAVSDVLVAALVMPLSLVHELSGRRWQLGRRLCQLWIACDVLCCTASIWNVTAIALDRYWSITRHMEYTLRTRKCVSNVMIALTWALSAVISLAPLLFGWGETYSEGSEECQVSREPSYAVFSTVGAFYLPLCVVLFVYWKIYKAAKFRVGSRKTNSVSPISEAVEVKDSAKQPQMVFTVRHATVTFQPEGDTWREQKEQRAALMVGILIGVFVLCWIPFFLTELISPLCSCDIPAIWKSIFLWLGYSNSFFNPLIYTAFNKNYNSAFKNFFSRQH

[4] = target: T2, Adenosine receptor A1 (Homo sapiens) (UniProt P30542); assay: Agonist activity at recombinant human A1AR expressed in CHO cells assessed as inhibition of forskolin-stimulated cAMP accumulation at 10 uM after 15 mins relative to N6-cyclopentyladenosine; type: functional, cell-based
T2 sequence (whole entry): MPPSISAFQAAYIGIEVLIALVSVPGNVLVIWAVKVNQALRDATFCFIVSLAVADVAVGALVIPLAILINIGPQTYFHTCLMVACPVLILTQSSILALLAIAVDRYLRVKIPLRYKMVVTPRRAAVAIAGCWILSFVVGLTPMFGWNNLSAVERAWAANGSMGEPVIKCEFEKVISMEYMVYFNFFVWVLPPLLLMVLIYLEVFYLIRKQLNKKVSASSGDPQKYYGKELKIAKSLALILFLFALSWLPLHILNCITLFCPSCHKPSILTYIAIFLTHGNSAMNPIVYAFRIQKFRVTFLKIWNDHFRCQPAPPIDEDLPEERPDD

[5] = target: T3, Adenosine receptor A3 (Mus musculus) (UniProt Q61618); assay: Agonist activity at recombinant mouse A3AR expressed in HEK293 cells assessed as inhibition of forskolin-stimulated cAMP accumulation at 10 uM after 15 mins relative to adenosine-5'-N-ethyluronamide; type: functional, cell-based
T3 sequence (whole entry): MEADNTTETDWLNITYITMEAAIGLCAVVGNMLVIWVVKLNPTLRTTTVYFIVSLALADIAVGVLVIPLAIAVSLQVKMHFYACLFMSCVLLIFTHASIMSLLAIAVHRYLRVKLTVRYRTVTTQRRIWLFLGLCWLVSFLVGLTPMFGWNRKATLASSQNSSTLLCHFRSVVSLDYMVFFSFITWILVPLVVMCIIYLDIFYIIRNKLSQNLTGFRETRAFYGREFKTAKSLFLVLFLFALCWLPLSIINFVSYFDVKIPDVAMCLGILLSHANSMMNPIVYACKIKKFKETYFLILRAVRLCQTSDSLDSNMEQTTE

[6] = target: T4, 5-hydroxytryptamine receptor 2A (Homo sapiens, UniProt P28223); assay: Antagonist activity at human 5-HT2AR expressed in Flp-In HEK cells assessed as inhibition of serotonin induced calcium mobilization at 10 uM preincubated for 5 to 10 mins followed by serotonin addition by Fluo-4 dye based FLIPR assay relative to control; type: functional, cell-based; settings: HEK293
T4 sequence (P28223 whole entry): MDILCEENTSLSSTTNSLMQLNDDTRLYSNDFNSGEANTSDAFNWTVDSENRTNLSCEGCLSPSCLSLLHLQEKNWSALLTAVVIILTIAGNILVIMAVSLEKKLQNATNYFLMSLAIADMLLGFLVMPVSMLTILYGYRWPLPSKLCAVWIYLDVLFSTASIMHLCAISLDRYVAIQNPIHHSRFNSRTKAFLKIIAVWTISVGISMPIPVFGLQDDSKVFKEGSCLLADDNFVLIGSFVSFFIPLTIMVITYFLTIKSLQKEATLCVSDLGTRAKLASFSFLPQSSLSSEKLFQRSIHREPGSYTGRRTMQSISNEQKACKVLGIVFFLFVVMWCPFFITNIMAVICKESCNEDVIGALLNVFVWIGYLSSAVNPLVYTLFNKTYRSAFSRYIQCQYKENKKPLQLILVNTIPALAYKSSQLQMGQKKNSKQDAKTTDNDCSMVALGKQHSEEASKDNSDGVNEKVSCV

[7] = target: T4, 5-hydroxytryptamine receptor 2A; assay: Displacement of [3H]ketanserin from human 5-HT2A receptor expressed in HEK-T cell membranes at 10 uM incubated for 90 mins under dark condition by microbeta scintillation counting method relative to control
Adenosine receptor A2a = Adenosine receptor A2a (Homo sapiens, UniProt P29274); assay: Displacement of [3 H]2-[p-(2-carboxyethyl)phenyl-ethylamino]-5'-N-ethylcarboxamidoadenosine from recombinant human adenosine receptor A2A expressed in HEK293 cell membranes after 60 mins by liquid scintillation counting method
Adenosine receptor A2a, sequence (P29274 whole entry): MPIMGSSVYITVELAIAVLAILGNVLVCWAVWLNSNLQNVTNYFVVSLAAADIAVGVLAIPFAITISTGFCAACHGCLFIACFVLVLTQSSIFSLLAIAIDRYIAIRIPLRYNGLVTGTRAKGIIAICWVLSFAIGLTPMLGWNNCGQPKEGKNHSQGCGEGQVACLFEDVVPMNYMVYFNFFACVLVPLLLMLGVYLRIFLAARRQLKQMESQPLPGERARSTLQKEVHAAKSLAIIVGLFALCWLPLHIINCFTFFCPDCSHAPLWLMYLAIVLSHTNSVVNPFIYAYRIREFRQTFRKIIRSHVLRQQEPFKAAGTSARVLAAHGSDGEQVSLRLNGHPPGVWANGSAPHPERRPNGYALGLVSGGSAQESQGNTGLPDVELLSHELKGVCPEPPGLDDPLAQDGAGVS

[8] = Half life of compound in fasted state simulated gastric fluid at pH 1.6; type: ADME, tissue-based, Stomach; settings: simulated gi fluid
[9] = Half life of compound in fasted state simulated intestinal fluid at pH 6.5; type: ADME; settings: simulated gi fluid
[10] = Metabolic stability in human plasma assessed as compound remaining measured after 120 mins; type: ADME, cell-free; settings: read-out: Stability
[11] = Metabolic stability in rat plasma assessed as compound remaining measured after 120 mins; type: ADME, cell-free; settings: 2 h
[12] = Metabolic stability in mouse plasma assessed as compound remaining measured after 120 mins; type: ADME, cell-free; settings: 2 h
[13] = Apparent permeability across apical side to basolateral side in human Caco2 cells; type: ADME, cell-based; settings: caco-2
[14] = Apparent permeability across basolateral side to apical side in human Caco2 cells; type: ADME, cell-based; settings: caco-2
Cytochrome P450 1A2 = Cytochrome P450 1A2 (Homo sapiens, UniProt P05177); assay: Inhibition of CYP1A2 (unknown origin); type: ADME
Cytochrome P450 1A2, sequence (P05177 whole entry): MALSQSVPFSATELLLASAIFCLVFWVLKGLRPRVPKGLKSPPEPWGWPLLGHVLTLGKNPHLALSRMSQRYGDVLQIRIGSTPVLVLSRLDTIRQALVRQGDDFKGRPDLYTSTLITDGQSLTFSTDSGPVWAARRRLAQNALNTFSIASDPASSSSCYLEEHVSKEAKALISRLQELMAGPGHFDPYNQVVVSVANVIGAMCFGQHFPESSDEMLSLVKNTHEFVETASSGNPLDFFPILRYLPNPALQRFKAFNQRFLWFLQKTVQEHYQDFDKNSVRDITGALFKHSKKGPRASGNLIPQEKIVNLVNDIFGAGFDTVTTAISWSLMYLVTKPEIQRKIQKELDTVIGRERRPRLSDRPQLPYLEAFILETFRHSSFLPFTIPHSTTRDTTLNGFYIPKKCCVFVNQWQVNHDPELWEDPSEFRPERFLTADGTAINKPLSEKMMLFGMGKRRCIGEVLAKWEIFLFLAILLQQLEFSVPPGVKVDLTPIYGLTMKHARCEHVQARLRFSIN

Cytochrome P450 2C9 = Cytochrome P450 2C9 (Homo sapiens, UniProt P11712); assay: Inhibition of CYP2C9 (unknown origin); type: ADME
Cytochrome P450 2C9, sequence (P11712 whole entry): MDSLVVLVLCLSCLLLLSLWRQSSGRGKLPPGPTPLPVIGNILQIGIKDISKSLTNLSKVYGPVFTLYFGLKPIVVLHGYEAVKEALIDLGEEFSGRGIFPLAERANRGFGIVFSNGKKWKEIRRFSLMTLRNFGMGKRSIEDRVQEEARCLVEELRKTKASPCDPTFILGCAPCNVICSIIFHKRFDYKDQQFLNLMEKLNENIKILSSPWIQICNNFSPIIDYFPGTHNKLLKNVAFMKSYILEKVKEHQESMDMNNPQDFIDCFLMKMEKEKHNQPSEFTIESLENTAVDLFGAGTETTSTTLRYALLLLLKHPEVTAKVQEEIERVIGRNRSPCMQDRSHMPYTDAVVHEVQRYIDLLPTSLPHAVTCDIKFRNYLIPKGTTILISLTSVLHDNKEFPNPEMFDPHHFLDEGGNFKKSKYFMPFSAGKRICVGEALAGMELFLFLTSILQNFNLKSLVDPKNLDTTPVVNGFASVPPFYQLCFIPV

Cytochrome P450 2C19 = Cytochrome P450 2C19 (Homo sapiens, UniProt P33261); assay: Inhibition of CYP2C19 (unknown origin); type: ADME
Cytochrome P450 2C19, sequence (P33261 whole entry): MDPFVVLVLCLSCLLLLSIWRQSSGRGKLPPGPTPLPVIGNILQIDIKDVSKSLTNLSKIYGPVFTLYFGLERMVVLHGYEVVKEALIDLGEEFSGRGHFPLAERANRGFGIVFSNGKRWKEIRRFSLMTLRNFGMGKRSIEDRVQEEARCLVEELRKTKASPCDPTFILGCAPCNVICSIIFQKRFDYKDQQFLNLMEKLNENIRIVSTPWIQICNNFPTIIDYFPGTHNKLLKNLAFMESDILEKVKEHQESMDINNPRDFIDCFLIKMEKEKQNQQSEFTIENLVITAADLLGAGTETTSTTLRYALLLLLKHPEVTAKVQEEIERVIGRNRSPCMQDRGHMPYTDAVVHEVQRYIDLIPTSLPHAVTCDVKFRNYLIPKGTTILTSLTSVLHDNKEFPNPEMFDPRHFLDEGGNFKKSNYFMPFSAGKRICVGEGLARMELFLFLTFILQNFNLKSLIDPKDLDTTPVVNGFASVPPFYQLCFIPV

[15] = Half life in human liver microsomes; type: ADME
[16] = Half life in rat liver microsomes; type: ADME
[17] = Half life in mouse liver microsomes; type: ADME
[18] = Intrinsic clearance in human liver microsomes; type: ADME
[19] = Metabolic stability in human liver microsomes assessed as compound remaining measured after 1 hr in presence of cofactor; type: ADME
[20] = Growth inhibition of human HepG2 cells at 30 uM; type: cell-based; settings: read-out: GI
[21] = Stability of compound in pH 1.6 fasted state simulated gastric fluid assessed as compound remaining measured after 2 hrs; type: ADME; settings: read-out: Stability
[22] = Half life in Sprague-Dawley rat at 1 mg/kg, iv administered as single dose; type: ADME, organism-based; settings: in vivo
[23] = Initial plasma concentration in Sprague-Dawley rat at 1 mg/kg, iv administered as single dose; type: ADME, organism-based; settings: in vivo
[24] = Volume of distribution at steady state in Sprague-Dawley rat at 1 mg/kg, iv administered as single dose; type: ADME, organism-based; settings: in vivo
[25] = Stability of compound in pH 6.5 fasted state simulated intestinal fluid assessed as compound remaining measured after 2 hrs; type: ADME; settings: simulated gi fluid, pH 6.5, 2 h
[26] = target: Sodium-dependent dopamine transporter (Homo sapiens, UniProt Q01959); assay: Inhibition of human dopamine transporter expressed in HEK293 cells assessed as inhibition of dopamine uptake measured after 30 mins by fluorescence analysis; type: cell-based
Sodium-dependent dopamine transporter, sequence (Q01959 whole entry): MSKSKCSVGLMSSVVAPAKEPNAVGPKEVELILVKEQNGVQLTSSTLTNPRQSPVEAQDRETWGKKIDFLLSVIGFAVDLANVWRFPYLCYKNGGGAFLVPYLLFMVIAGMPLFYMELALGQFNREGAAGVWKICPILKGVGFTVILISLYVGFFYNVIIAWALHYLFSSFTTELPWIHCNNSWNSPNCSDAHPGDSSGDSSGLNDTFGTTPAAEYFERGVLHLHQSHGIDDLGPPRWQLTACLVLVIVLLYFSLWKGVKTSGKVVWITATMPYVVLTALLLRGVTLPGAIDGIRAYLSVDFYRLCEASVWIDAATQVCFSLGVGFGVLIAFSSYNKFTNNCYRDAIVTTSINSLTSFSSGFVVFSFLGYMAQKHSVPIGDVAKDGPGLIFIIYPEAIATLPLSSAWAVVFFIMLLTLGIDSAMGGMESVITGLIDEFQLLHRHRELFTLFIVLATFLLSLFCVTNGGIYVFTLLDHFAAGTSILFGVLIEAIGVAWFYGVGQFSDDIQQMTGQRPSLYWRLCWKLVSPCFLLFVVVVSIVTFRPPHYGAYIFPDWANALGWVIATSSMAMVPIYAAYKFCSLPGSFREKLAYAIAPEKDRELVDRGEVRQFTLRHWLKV

SMILES | inhibition [1] [%] | inhibition [2] [%] | inhibition [3] [%] | Imax [4] [%] | Imax [5] [%] | inhibition [7] [%] | Ki (Adenosine receptor A2a) [µM] | t1/2 [8] [h] | t1/2 [9] [h] | remaining at 2 h [10] [%] | Stability [11] [%] | Stability [12] [%] | Papp [13] [×10⁻⁶ cm/s] | Papp [14] [×10⁻⁶ cm/s] | IC50 (Cytochrome P450 2C9) [µM] | t1/2 [15] [h] | t1/2 [16] [h] | t1/2 [17] [h] | CLH [18] [µL/min/mg] | Stability [19] [%] | also measured
CCOC(=O)[C@@]12C[C@@H]1[C@@H](n1cnc3c(NC(C4CC4)C4CC4)nc(Cl)nc31)[C@H](O)[C@@H]2O | < 50 | < 50 | < 50 | 89 | 26.3 | – | – | – | – | – | – | – | – | – | – | – | – | – | – | – | inhibition [6]: > 10%
CNC(=O)[C@@]12C[C@@H]1[C@@H](n1cnc3c(NC(C4CC4)C4CC4)nc(Cl)nc31)[C@H](O)[C@@H]2O | < 50 | < 50 | < 50 | – | 96.7 | < 10 | 4.32 | 2.2 | > 8 | 100 to 104 | 88.7 | 95 | 4.73 | 46.21 | > 30 | 2.17 | > 2.33 | > 2.42 | 1.75 | 87 | IC50 (Cytochrome P450 1A2): > 30 µM; IC50 (Cytochrome P450 2C19): > 30 µM; inhibition at 30 µM [20]: < 30%; remaining at 2 h [21]: 50%; t1/2 [22]: 2.89 h; C0 [23]: 1070 ng/mL; Vdss [24]: 3.16 L/kg
COC(=O)[C@@]12C[C@@H]1[C@@H](n1cnc3c(NC(C4CC4)C4CC4)nc(Cl)nc31)[C@H](O)[C@@H]2O | < 50 | < 50 | < 50 | – | 41.4 | < 10 | – | 2.08 | > 8 | 95.3 to 100 | 70.9 | 61 | 18.47 | 30.59 | 20.1 | > 2.33 | > 2.33 | > 2.33 | 0.77 | 94 | inhibition at 30 µM [20]: < 30%; Stability [25]: 97%; remaining at 2 h [21]: 50%; t1/2 [22]: 3.56 h; C0 [23]: 349 ng/mL; Vdss [24]: 4.62 L/kg
OC[C@@]12C[C@@H]1[C@@H](n1cnc3c(NC(C4CC4)C4CC4)nc(Cl)nc31)[C@H](O)[C@@H]2O | < 50 | < 50 | < 50 | 104 | – | < 10 | 2.2 | – | – | – | – | – | – | – | – | – | – | – | – | – | Ki [26]: 4.8 µM
